Source: publication PMC11120408 (Foods, 2024)
Read-outs that look alike come from different tables or passages of the source.

How the values were obtained:
[1] = Solubility and light sensitivity (statement, no method)
[2] = target: T1, α-glucosidase (α-Glu) (Saccharomyces cerevisiae, UniProt P53341); assay: Fluorescence quenching / binding of AK/MS to α-Glu; settings: for Kq (quenching rate constant): Ksv/τ0; for Kd: read-out: Ka (binding constant) (converted); for fluorescence quenching mechanism: Stern–Volmer analysis; for ΔH^0 / ΔS^0: van't Hoff, 298–310 K; for decrease of synchronous fluorescence intensity of α-Glu: Δλ = 60 nm (Trp); for reduction of three-dimensional fluorescence intensity of Peak 1 of α-Glu: α-Glu 2.0 μM, inhibitor 13.0 μM
T1 construct: purchased Shanghai Yuanye Bio-Technology Co., Ltd
Experimental: The fluorescence spectrum of α-Glu was acquired in the spectral region of 300–450 nm on an F97 Pro spectrofluorometer (Lengguang Tech., Shanghai, China) with both excitation and emission slits of 10 nm, when excited at 280 nm. The solution of α-Glu (2.0 μM) was titrated by successively adding different amounts of AK (final concentrations of 4.0, 8.0, 12.0, 16.0, 20.0, 24.0 and 28.0 μM, respectively) or MS (final concentrations of 1.0, 3.0, 5.0, 7.0, 9.0, 11.0 and 13.0 μM, respectively) at 298, 304, and 310 K.
The synchronous fluorescence spectrum was recorded from 270 to 330 nm, when the interval of the emission and excitation wavelength (Δλ = λem − λex) constant was fixed at 15 and 60 nm, respectively.
The three-dimensional fluorescence spectra of α-Glu with or without AK/MS were measured at 298 K. The excitation wavelength range was from 200 to 360 nm, and the emission was collected from 270 to 330 nm, together with an increment of 10 nm. The final concentrations of α-Glu, AK, and MS were 2.0, 13.0, and 13.0 μM, respectively.
All the samples were thoroughly mixed and kept for 6 min before detection, and the inner-filter effect was eliminated to correct the obtained fluorescence data, referring to our previous report.
Thus, the relative mechanism was investigated through the Stern–Volmer equation:(6) F0/F=1+Ksv[Q]=1+kqτ0[Q] where F0 and F are the fluorescence intensities of α-Glu without and with inhibitors, respectively. Ksv, [Q], kq, and τ0 represent the Stern–Volmer quenching constant, the concentration of inhibitor, the biomolecule quenching rate constant, and the average lifetime of protein in the absence of inhibitors, respectively. Specifically, Ksv is determined by the plot of F0/F against [Q], τ0 is about 10^−8 s, and kq is equal to Ksv/τ0.
The binding constants (Ka) of the α-Glu-AK and α-Glu-MS systems were evaluated by the following equation:(7) logF0−F/F=nlogKa−nlog1/[Qt]−(F0−F)[Pt]/F0 where [Pt] and [Qt] represent the total concentrations of α-Glu and the inhibitor, respectively. n is the number of binding sites.
To better reveal the binding mechanism of AK/MS to α-Glu, the critical forces between them were also explored. Typically, the binding forces between proteins and ligands could be estimated by the calculation of the thermodynamic parameters using the following equations:(8) logKa=−ΔH^0/2.303RT+ΔS^0/2.303R (9) ΔG^0=ΔH^0−TΔS^0 where T represents the absolute temperature (in Kelvin), and R is the universal gas constant (8.314 J mol^−1 K^−1). ΔH^0 and ΔS^0 stand for the enthalpy change and entropy change, respectively, and they could be calculated by the slope and the y-axis intercept in the linearly fitted plot between lnKa and 1/T (Figure S4A,B). Then, the free energy change (ΔG^0) is obtained according to Equation (9).

[3] = target: T1, α-glucosidase (α-Glu); assay: biochemical; settings: Cα-Glu = 0.10 U/mL, CpNPG = 2.08 mM, pH 6.8, 310 K; read-out: IC50 against α-Glu
Experimental: The stock solutions (2.0 mM) of AK/MS were prepared by dissolving them in dimethyl sulfoxide, respectively. […] The inhibitory activities of AK/MS against α-Glu were assessed in vitro according to the previous method with a slight modification. Firstly, 50 μL of α-Glu and different doses of inhibitors were mixed for 1 h at 310 K. Fifty microliter of pNPG (5.0 mM) was then put in to activate the reaction. After a 30 min incubation, the Na2CO3 solution (0.2 M, 100 μL) was added to stop the reaction. The absorbance of p-nitrophenol converted from pNPG was monitored at 405 nm on an Infinite® M200 PRO plate reader (Tecan, Durham, NC, USA).

[4] = target: T1, α-glucosidase (α-Glu); assay: biochemical; assay type: biochemical; settings: for inhibition mode against α-Glu: L-B plots; for Ki: read-out: Ki (inhibition constant, binding to enzyme); for reversibility of inhibition: plots of v vs α-Glu concentration
Experimental: The same procedure in Section 2.2.1 was used to investigate the inhibition mechanisms of AK and MS against α-Glu. Using the Michaelis–Menten equation, inhibitors with various concentrations were utilized to evaluate the kinetic parameters (Km and Vmax). Moreover, the values of two kinetic constants Ki and Kis were determined using the Lineweaver–Burk (L-B) plots. The L-B equation could be expressed in a double reciprocal form for the mixed-type inhibition mechanism analysis:(1) 1/v=Km/Vmax1+I/Ki1/S+1/Vmax1+I/Kis
Km and Vmax denote the Michaelis–Menten constant and the maximum reaction velocity, respectively. [I] and [S] are the concentrations of the inhibitor and substrate, respectively. Ki and Kis represent the inhibition constants to bind with the enzyme and the enzyme–substrate complex, respectively. The secondary plots of the Y-intercept versus [I] are linearly fitted.

[5] = system: α-Glu; settings: read-out: IC50 against α-Glu, cited from earlier work
[6] = mixed-type, L-B secondary plots

T1 sequence (P53341 whole entry): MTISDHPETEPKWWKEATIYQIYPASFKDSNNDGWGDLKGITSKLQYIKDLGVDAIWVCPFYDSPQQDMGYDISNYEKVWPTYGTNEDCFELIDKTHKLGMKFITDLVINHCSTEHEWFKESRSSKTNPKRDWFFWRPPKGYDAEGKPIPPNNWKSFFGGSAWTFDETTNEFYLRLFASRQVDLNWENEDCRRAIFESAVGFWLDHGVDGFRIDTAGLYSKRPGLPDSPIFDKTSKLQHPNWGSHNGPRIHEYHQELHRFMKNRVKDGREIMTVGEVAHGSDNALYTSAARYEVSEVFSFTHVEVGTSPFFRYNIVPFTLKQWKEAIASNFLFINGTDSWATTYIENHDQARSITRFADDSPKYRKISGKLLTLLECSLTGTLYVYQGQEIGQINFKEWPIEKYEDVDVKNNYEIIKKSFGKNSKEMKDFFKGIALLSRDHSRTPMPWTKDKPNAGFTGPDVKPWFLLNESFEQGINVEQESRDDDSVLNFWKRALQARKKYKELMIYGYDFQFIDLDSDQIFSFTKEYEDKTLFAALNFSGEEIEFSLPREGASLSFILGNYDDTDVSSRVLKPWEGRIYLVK

| SMILES | Ksv (Stern–Volmer quenching constant) ([2]; 298 K) | Kq (quenching rate constant) ([2]; 298 K) | Kd ([2]; 298 K) [µM] | Ksv (Stern–Volmer quenching constant) ([2]; 304 K) | ΔG^0 ([2]; 304 K) [kcal/mol] | Kq (quenching rate constant) ([2]; 304 K) | Kd ([2]; 304 K) [µM] | Ksv (Stern–Volmer quenching constant) ([2]; 310 K) | ΔG^0 ([2]; 310 K) [kcal/mol] | Kq (quenching rate constant) ([2]; 310 K) | Kd ([2]; 310 K) [µM] | fluorescence quenching mechanism [2] | ΔH^0 [2] [kcal/mol] | ΔS^0 [2] [J mol^−1K^−1] | decrease of synchronous fluorescence intensity of α-Glu [2] [%] | reduction of three-dimensional fluorescence intensity of Peak 1 of α-Glu ([2]; 298 K) [%] | IC50 [3] [µM] | inhibition mode against α-Glu [4] | Ki [4, 6] [µM] | reversibility of inhibition [4] | also measured |
| --- | --- | --- | --- | --- | --- | --- | --- | --- | --- | --- | --- | --- | --- | --- | --- | --- | --- | --- | --- | --- | --- |
| C/C=C/C1=CC2=C(CO1)C(=O)[C@]1(C)OC(=O)[C@H](C(=O)CCCCC)[C@H]1C2 [MS, monascin] | 2.09 ± 0.02 10^4 M^−1 | 2.09 ± 0.02 10^12 M^−1s^−1 | 70.9 | 1.94 ± 0.04 10^4 M^−1 | -2.536 ± 0.0048 | 1.94 ± 0.04 10^12 M^−1s^−1 | 76.3 | 1.58 ± 0.03 10^4 M^−1 | -2.562 ± 0.0072 | 1.58 ± 0.03 10^12 M^−1s^−1 | 80.6 | static quenching | -1.18 ± 0.0239 | 18.68 ± 3.20 | 33.9 | 20.0 | 302.6 ± 2.5 | mixed type | 298 ± 18.1 | reversible inhibitors | sensitivity to light [1]: sensitive to light; solubility [1]: poor; Vmax of α-Glu ([4]; inhibitor 100 μM): 1.85 ± 0.04 µM/min; Vmax of α-Glu ([4]; inhibitor 200 μM): 1.76 ± 0.08 µM/min |
| C[C@H]1O[C@H](O[C@H]2[C@H](O)[C@@H](O)[C@@H](O[C@H]3[C@H](O)[C@@H](O)C(O)O[C@@H]3CO)O[C@@H]2CO)[C@H](O)[C@@H](O)[C@@H]1N[C@H]1C=C(CO)[C@@H](O)[C@H](O)[C@H]1O (stereo partly shown) [acarbose] |  |  |  |  |  |  |  |  |  |  |  |  |  |  |  |  |  |  |  |  | IC50 ([5]; previous work): 376 ± 4.4 µM |
| O=c1cc(-c2ccc(O)cc2)oc2cc(O)cc(O)c12 [apigenin] |  |  |  |  |  |  |  |  |  |  |  |  |  |  |  |  |  |  |  |  | IC50 [5]: 10.5 ± 0.05 µM |
| C/C=C/C1=CC2=C(CO1)C(=O)[C@]1(C)OC(=O)[C@H](C(=O)CCCCCCC)[C@H]1C2 [AK, ankaflavin] | 2.23 ± 0.12 10^4 M^−1 | 2.23 ± 0.12 10^12 M^−1s^−1 | 58.1 | 2.08 ± 0.07 10^4 M^−1 | -2.488 ± 0.0813 | 2.08 ± 0.07 10^12 M^−1s^−1 | 63.3 | 1.91 ± 0.08 10^4 M^−1 | -2.519 ± 0.0526 | 1.91 ± 0.08 10^12 M^−1s^−1 | 69.4 | static quenching | -0.841 ± 0.0048 | 22.66 ± 0.84 | 59.4 | 24.9 | 127 ± 2.5 | mixed type | 57.8 ± 5.89 | reversible inhibitors | Vmax of α-Glu ([4]; inhibitor 30 μM): 4.02 ± 0.07 µM/min; Vmax of α-Glu ([4]; inhibitor 40 μM): 3.86 ± 0.04 µM/min; Kis (inhibition constant, binding to enzyme–substrate complex) [4, 6]: 3.45 ± 0.06 µM |
